How the values were obtained:
Type in all cases: in vivo
[1] = system: Trichostrongylus colubriformis; experiment: Total worm count, resistant strains in sheep (Example 2); conditions: for % efficacy (arithmetic mean): doses as the 4th table, Day 15
Method: (§1) Sheep were artificially infected with L3 larvae of Teladorsagia (Ostertagia) circumcincta and Trichostrongylus colubriformis and efficacy was measured by total worm counts in the treatment group compared to the control group following administration of treatment.
(§2) All study animals were necropsied on Day 15 after treatment. Abomasa and small intestines were collected for worm recovery and total worm count estimations.

[2] = system: Teladorsagia circumcincta; experiment: as above; conditions: for % efficacy (arithmetic mean): doses as the 4th table, Day 15, NEG = negative efficacy, mean count higher than control
Method: as §1, §2

Teladorsagia trifurcata = experiment: as above; conditions: for % efficacy (arithmetic mean): doses as the 4th table, Day 15, NEG = negative efficacy, mean count higher than control
Method: as §1, §2

Haemonchus contortus = experiment: Total worm count, resistant strains in sheep (Example 3); conditions: for % efficacy (arithmetic mean): doses as the 6th table, Day 15
Method: (§3) Sheep were artificially infected with infective L3 larvae in a mixed culture containing Haemonchus contortus, Teladorsagia spp and Trichostrongylus spp, and efficacy was measured by total worm counts in the treatment group compared to the control group following administration of treatment. The animals were treated as outlined below with the commercially available reference products included to confirm the resistance profile of the above parasites.
as §2

Trich. colubriformis = experiment: as above; conditions: for % efficacy (arithmetic mean): doses as the 6th table, Day 15
Method: as §3, §2

Teladorsagia spp (total) = experiment: as above; conditions: for % efficacy (arithmetic mean): doses as the 6th table, Day 15, NEG = negative efficacy
Method: as §3, §2

[3] = Example 2, resistant Trichostrongylus colubriformis
[4] = Example 2, resistant Teladorsagia circumcincta
[5] = Example 2, Teladorsagia trifurcata
[6] = Example 3, resistant Haemonchus contortus
[7] = Example 3, resistant Trich. colubriformis
[8] = Example 3, resistant Teladorsagia spp (total)
[9] = Example 2, resistant Trichostrongylus colubriformis, per os once Day 0 (2-DOPH 2 + abamectin 0.2; albendazole 3.8; levamisole 8; ivermectin 0.2 mg/kg), necropsy Day 15
[10] = Example 2, resistant Teladorsagia circumcincta, per os once Day 0 (2-DOPH 2 + abamectin 0.2; albendazole 3.8; levamisole 8; ivermectin 0.2 mg/kg), necropsy Day 15
[11] = Example 2, Teladorsagia trifurcata, per os once Day 0 (2-DOPH 2 + abamectin 0.2; albendazole 3.8; levamisole 8; ivermectin 0.2 mg/kg), necropsy Day 15
[12] = Example 3, resistant Haemonchus contortus, per os once Day 0 (2-DOPH 2 + abamectin 0.2; albendazole 3.8; levamisole 8; ivermectin 0.2 mg/kg), necropsy Day 15
[13] = Example 3, resistant Trich. colubriformis, per os once Day 0 (2-DOPH 2 + abamectin 0.2; albendazole 3.8; levamisole 8; ivermectin 0.2 mg/kg), necropsy Day 15
[14] = Example 3, resistant Teladorsagia spp (total), per os once Day 0 (2-DOPH 2 + abamectin 0.2; albendazole 3.8; levamisole 8; ivermectin 0.2 mg/kg), necropsy Day 15

CCCSc1ccc2nc(NC(=O)OC)[nH]c2c1 [Albendazole]
% efficacy (arithmetic mean) [1, 3]: 56.44%
Arithmetic Mean (total worm count) ([1]; in vivo): 1812.0
Prevalence (total worm count) ([1]; in vivo): 10/10
Range (total worm count) ([1]; in vivo): 1320-2660
% efficacy (arithmetic mean) [2, 4]: NEG^
Arithmetic Mean (total worm count) ([2]; in vivo): 2184.4
Prevalence (total worm count) ([2]; in vivo): 10/10
Range (total worm count) ([2]; in vivo): 80-3708
% efficacy (arithmetic mean) (Teladorsagia trifurcata; [5]): NEG^
Arithmetic Mean (total worm count) (Teladorsagia trifurcata; in vivo): 281.6
Prevalence (total worm count) (Teladorsagia trifurcata; in vivo): 7/10
Range (total worm count) (Teladorsagia trifurcata; in vivo): 0-712
% efficacy (arithmetic mean) (Haemonchus contortus; [6]): 80.57%
Arithmetic Mean (total worm count) (Haemonchus contortus; in vivo): 164.0
Prevalence (total worm count) (Haemonchus contortus; in vivo): 8/10
Range (total worm count) (Haemonchus contortus; in vivo): 0-320
% efficacy (arithmetic mean) (Trich. colubriformis; [7]): 25.00%
Arithmetic Mean (total worm count) (Trich. colubriformis; in vivo): 3828.0
Prevalence (total worm count) (Trich. colubriformis; in vivo): 10/10
Range (total worm count) (Trich. colubriformis; in vivo): 2600-5160
% efficacy (arithmetic mean) (Teladorsagia spp (total); [8]): 58.16%
Arithmetic Mean (total worm count) (Teladorsagia spp (total); in vivo): 590.0
Prevalence (total worm count) (Teladorsagia spp (total); in vivo): 10/10
Range (total worm count) (Teladorsagia spp (total); in vivo): 160-1200

Ivermectin
% efficacy (arithmetic mean) [1, 3]: 55.29%
Arithmetic Mean (total worm count) ([1]; in vivo): 1860.0
Prevalence (total worm count) ([1]; in vivo): 10/10
Range (total worm count) ([1]; in vivo): 400-4060
% efficacy (arithmetic mean) [2, 4]: NEG^
% efficacy (arithmetic mean) ([2]; Example 2, resistant Teladorsagia circumcincta, listed as ivermectin): zero
Arithmetic Mean (total worm count) ([2]; in vivo): 2093.2
Prevalence (total worm count) ([2]; in vivo): 10/10
Range (total worm count) ([2]; in vivo): 680-3600
% efficacy (arithmetic mean) (Teladorsagia trifurcata; [5]): 15.49%
Arithmetic Mean (total worm count) (Teladorsagia trifurcata; in vivo): 194.8
Prevalence (total worm count) (Teladorsagia trifurcata; in vivo): 7/10
Range (total worm count) (Teladorsagia trifurcata; in vivo): 0-459
% efficacy (arithmetic mean) (Haemonchus contortus; [6]): 47.63%
Arithmetic Mean (total worm count) (Haemonchus contortus; in vivo): 442.0
Prevalence (total worm count) (Haemonchus contortus; in vivo): 8/10
Range (total worm count) (Haemonchus contortus; in vivo): 0-940
% efficacy (arithmetic mean) (Trich. colubriformis; [7]): 11.63%
Arithmetic Mean (total worm count) (Trich. colubriformis; in vivo): 4510.0
Prevalence (total worm count) (Trich. colubriformis; in vivo): 10/10
Range (total worm count) (Trich. colubriformis; in vivo): 3140-5920
% efficacy (arithmetic mean) (Teladorsagia spp (total); [8]): NEG
Arithmetic Mean (total worm count) (Teladorsagia spp (total); in vivo): 1680.0
Prevalence (total worm count) (Teladorsagia spp (total); in vivo): 10/10
Range (total worm count) (Teladorsagia spp (total); in vivo): 280-3800

c1ccc([C@H]2CN3CCSC3=N2)cc1 [Levamisole]
% efficacy (arithmetic mean) [1, 3]: 84.31%
Arithmetic Mean (total worm count) [1, 9]: 652.6
Prevalence (total worm count) [1, 9]: 9/9
Range (total worm count) [1, 9]: 300-1500
% efficacy (arithmetic mean) [2, 4]: 82.67%
Arithmetic Mean (total worm count) [2, 10]: 292.8
Prevalence (total worm count) [2, 10]: 7/9
Range (total worm count) [2, 10]: 0-1020
% efficacy (arithmetic mean) (Teladorsagia trifurcata; [5]): 84.08%
Arithmetic Mean (total worm count) (Teladorsagia trifurcata; [11]): 36.7
Prevalence (total worm count) (Teladorsagia trifurcata; [11]): 4/9
Range (total worm count) (Teladorsagia trifurcata; [11]): 0-180
% efficacy (arithmetic mean) (Haemonchus contortus; [6]): 99.76%
Arithmetic Mean (total worm count) (Haemonchus contortus; [12]): 2.0
Prevalence (total worm count) (Haemonchus contortus; [12]): 1/10
Range (total worm count) (Haemonchus contortus; [12]): 0-20
% efficacy (arithmetic mean) (Trich. colubriformis; [7]): 15.34%
Arithmetic Mean (total worm count) (Trich. colubriformis; [13]): 4320.7
Prevalence (total worm count) (Trich. colubriformis; [13]): 10/10
Range (total worm count) (Trich. colubriformis; [13]): 2120-5800
% efficacy (arithmetic mean) (Teladorsagia spp (total); [8]): 96.31%
Arithmetic Mean (total worm count) (Teladorsagia spp (total); [14]): 52.0
Prevalence (total worm count) (Teladorsagia spp (total); [14]): 8/10
Range (total worm count) (Teladorsagia spp (total); [14]): 0-160
